According to ChEMBL document CHEMBL1201862, “PubChem BioAssay data set” (2004):
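Dose response: 5 concentrations. Exposure: 48 h. Format: 96-well plates. Endpoint: linear interpolation; highest concentration if not reached. The concentration for 50% growth inhibition is given as GI50.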 Calls of active or inactive are those of the source. No stated cut-off is given here; in the data, active = GI50 up to about 1.1 µM and inactive = higher.

Columns and labels:
Assay in all cases: NCI-60 cell line screen, 48 h
HL-60 = tested on: HL-60
A498 = tested on: A498
ACHN = tested on: ACHN
NCI-H23 = tested on: NCI-H23
IGROV-1 = tested on: IGROV-1
MDA-MB-231 = tested on: MDA-MB-231
SNB-19 = tested on: SNB-19
PC-3 = tested on: PC-3
HOP-92 = tested on: HOP-92
COLO 205 = tested on: COLO 205
MCF7 = tested on: MCF7
HCC 2998 = tested on: HCC 2998
M14 = tested on: M14
BT-549 = tested on: BT-549
RPMI-8226 = tested on: RPMI-8226
CCRF-CEM = tested on: CCRF-CEM
NCI-H226 = tested on: NCI-H226
786-0 = tested on: 786-0
UACC-62 = tested on: UACC-62
HT-29 = tested on: HT-29
HCT-15 = tested on: HCT-15
LOX IMVI = tested on: LOX IMVI
U-251 = tested on: U-251
SW-620 = tested on: SW-620
SF-268 = tested on: SF-268
SK-MEL-5 = tested on: SK-MEL-5
MDA-MB-435 = tested on: MDA-MB-435
RXF 393 = tested on: RXF 393
EKVX = tested on: EKVX
SK-MEL-2 = tested on: SK-MEL-2
SF-539 = tested on: SF-539
Malme-3M = tested on: Malme-3M
A549 = tested on: A549
SF-295 = tested on: SF-295
T47D = tested on: T47D
CAKI-1 = tested on: CAKI-1
OVCAR-5 = tested on: OVCAR-5
HOP-62 = tested on: HOP-62
NCI-H522 = tested on: NCI-H522
SK-MEL-28 = tested on: SK-MEL-28
MOLT-4 = tested on: MOLT-4
KM12 = tested on: KM12
NCI-H460 = tested on: NCI-H460
Hs-578T = tested on: Hs-578T
DU-145 = tested on: DU-145
K562 = tested on: K562
SNB-75 = tested on: SNB-75
HCT-116 = tested on: HCT-116
OVCAR-4 = tested on: OVCAR-4
TK-10 = tested on: TK-10
UO-31 = tested on: UO-31
SN12C = tested on: SN12C
SK-OV-3 = tested on: SK-OV-3
UACC-257 = tested on: UACC-257
SR = tested on: SR
OVCAR-3 = tested on: OVCAR-3
OVCAR-8 = tested on: OVCAR-8
MDA-N = tested on: MDA-N
NCI/ADR-RES = tested on: NCI/ADR-RES

C(#CC1(Nc2ccccc2)CCN(Cc2ccccc2)CC1)C1(Nc2ccccc2)CCN(Cc2ccccc2)CC1
GI50 (HL-60): 1560 nM (inactive)
GI50 (A498): 30100 nM (inactive)
GI50 (ACHN): 39400 nM (inactive)
GI50 (NCI-H23): 37800 nM (inactive)
GI50 (IGROV-1): 22900 nM (inactive)
GI50 (MDA-MB-231): 16300 nM (inactive)
GI50 (SNB-19): 23800 nM (inactive)
GI50 (PC-3): 15100 nM (inactive)
GI50 (HOP-92): 4950 nM (inactive)
GI50 (COLO 205): 1310 nM (inactive)
GI50 (MCF7): 31500 nM (inactive)
GI50 (HCC 2998): 818 nM (active)
GI50 (M14): 11200 nM (inactive)
GI50 (BT-549): 34600 nM (inactive)
GI50 (RPMI-8226): 1180 nM (inactive)
GI50 (CCRF-CEM): 6270 nM (inactive)
GI50 (NCI-H226): 26700 nM (inactive)
GI50 (786-0): 17300 nM (inactive)
GI50 (UACC-62): 13200 nM (inactive)
GI50 (HT-29): 4720 nM (inactive)
GI50 (HCT-15): 22200 nM
GI50 (LOX IMVI): 5140 nM (inactive)
GI50 (U-251): 19900 nM (inactive)
GI50 (SW-620): 11200 nM (inactive)
GI50 (SF-268): 29100 nM (inactive)
GI50 (SK-MEL-5): 3880 nM (inactive)
GI50 (MDA-MB-435): 25800 nM (inactive)
GI50 (RXF 393): 12500 nM (inactive)
GI50 (EKVX): 40600 nM (inactive)
GI50 (SK-MEL-2): 10500 nM (inactive)
GI50 (SF-539): 5500 nM (inactive)
GI50 (Malme-3M): 3170 nM (inactive)
GI50 (A549): 23600 nM (inactive)
GI50 (SF-295): 22300 nM (inactive)
GI50 (T47D): 9310 nM (inactive)
GI50 (CAKI-1): 24300 nM (inactive)
GI50 (OVCAR-5): 53300 nM (inactive)
GI50 (HOP-62): 16700 nM (inactive)
GI50 (NCI-H522): 24800 nM (inactive)
GI50 (SK-MEL-28): 4800 nM (inactive)
GI50 (MOLT-4): 4170 nM (inactive)
GI50 (KM12): 35300 nM (inactive)
GI50 (NCI-H460): 16300 nM (inactive)
GI50 (Hs-578T): 10000 nM (inactive)
GI50 (DU-145): 46900 nM (inactive)
GI50 (K562): 1620 nM (inactive)
GI50 (SNB-75): 10000 nM (inactive)
GI50 (HCT-116): 19400 nM (inactive)
GI50 (OVCAR-4): 19300 nM (inactive)
GI50 (TK-10): 13200 nM (inactive)
GI50 (UO-31): 15500 nM (inactive)
GI50 (SN12C): 24200 nM (inactive)
GI50 (SK-OV-3): 5010 nM (inactive)
GI50 (UACC-257): 2080 nM (inactive)
GI50 (SR): 3150 nM (inactive)
GI50 (OVCAR-3): 37800 nM (inactive)
GI50 (OVCAR-8): 21600 nM (inactive)
GI50 (MDA-N): 14500 nM (inactive)
GI50 (NCI/ADR-RES): 34700 nM (inactive)

OCCO[P+]1(OCCO)n2c3ccc2C(c2ccccc2)=C2C=CC(=N2)C(c2ccccc2)=c2ccc(n21)=C(c1ccccc1)C1=NC(=C3c2ccccc2)C=C1
GI50 (HL-60): 15.2 nM (active)
GI50 (A498): 349 nM (active)
GI50 (ACHN): 251 nM (active)
GI50 (NCI-H23): 32.7 nM (active)
GI50 (IGROV-1): 22 nM (active)
GI50 (MDA-MB-231): 42 nM (active)
GI50 (SNB-19): 13.3 nM (active)
GI50 (PC-3): 29.9 nM (active)
GI50 (HOP-92): 38.2 nM (active)
GI50 (COLO 205): 13 nM (active)
GI50 (MCF7): 26.7 nM (active)
GI50 (HCC 2998): 19.5 nM (active)
GI50 (M14): 163 nM (active)
GI50 (BT-549): 11.8 nM (active)
GI50 (RPMI-8226): < 10 nM (active)
GI50 (CCRF-CEM): 15.8 nM (active)
GI50 (NCI-H226): 57.9 nM (active)
GI50 (786-0): 76.4 nM (active)
GI50 (UACC-62): 30.3 nM (active)
GI50 (HT-29): 28.1 nM (active)
GI50 (HCT-15): 1160 nM
GI50 (LOX IMVI): 22 nM (active)
GI50 (U-251): 15.2 nM (active)
GI50 (SW-620): 129 nM (active)
GI50 (SF-268): 26.3 nM (active)
GI50 (SK-MEL-5): 29.6 nM (active)
GI50 (MDA-MB-435): 29.6 nM (active)
GI50 (RXF 393): 182 nM (active)
GI50 (EKVX): 104 nM (active)
GI50 (SK-MEL-2): 48.1 nM (active)
GI50 (SF-539): 33.5 nM (active)
GI50 (Malme-3M): 40.8 nM (active)
GI50 (A549): 38.9 nM (active)
GI50 (SF-295): 150 nM (active)
GI50 (T47D): 25.1 nM (active)
GI50 (CAKI-1): 783 nM (active)
GI50 (OVCAR-5): 102 nM (active)
GI50 (HOP-62): 70.8 nM (active)
GI50 (NCI-H522): 40.5 nM (active)
GI50 (SK-MEL-28): 40.8 nM (active)
GI50 (MOLT-4): 54.5 nM (active)
GI50 (KM12): 24.7 nM (active)
GI50 (NCI-H460): 37.8 nM (active)
GI50 (Hs-578T): 23.7 nM (active)
GI50 (DU-145): 31.6 nM (active)
GI50 (K562): 10.9 nM (active)
GI50 (SNB-75): < 14.4 nM (active)
GI50 (HCT-116): 21.8 nM (active)
GI50 (OVCAR-4): 71.9 nM (active)
GI50 (TK-10): 119 nM (active)
GI50 (UO-31): 1140 nM (inactive)
GI50 (SN12C): 25.3 nM (active)
GI50 (SK-OV-3): 56.1 nM (active)
GI50 (UACC-257): 20.7 nM (active)
GI50 (SR): < 10.6 nM (active)
GI50 (OVCAR-3): 21.8 nM (active)
GI50 (OVCAR-8): 76.7 nM (active)
GI50 (MDA-N): 34.4 nM (active)
GI50 (NCI/ADR-RES): 3280 nM (inactive)
